For data set [1], the target named is T1, capture de (³H)dopamine par les synaptosomes striataux de rat (Rattus norvegicus, UniProt P23977).
T1 construct: Les culots résultants P2 contenant les synaptosomes bruts sont ensuite utilisés sans purification supplémentaire; from tissue; host or cells: Wistar rat striatum, crude synaptosomes (P2 pellet)
Kind of data set: biochemical. The protocol: Ce test est pratiqué selon la méthode utilisée par Vignon et Lazdunski en opérant de la façon suivante. Des rats Wistar pesant 200-250g sont tués par dislocation cervicale. Leurs cerveaux sont rapidement prélevés et les striata sont dissé-qués sur la glace. Les striata sont ensuite homogéné-isés (10 allers-retours) avec un homogénéisant Potter dans 50 volumes de tampon Tris HCl 10 mM à pH 7,4 contenant 0,32 M de sucrose. L'homogénat est ensuite centrifugé à 1000g pendant 10min à 4°C, puis le surnageant obtenu est recentrifugé à 10000g pendant 20min à 4°C. Les culots résultants P2 contenant les synaptosomes bruts sont ensuite utilisés sans purification supplémentaire.
On ajoute alors de la dopamine tritiée ((³H)DA, Amersham) à une concentration finale de 5 nM pendant 5 min à 30°C, et on interrompt sa capture par filtration de 150 µl du milieu d'incubation sur des filtres en fibres de verre GF/B (Whatman). La radioactivité retenue par les filtres est mesurée dans un compteur à scintillation liquide (LKB)avec 3 ml d'ACS (Amersham) comme scintillant. La capture non spécifique est mesurée à 4°C dans des incubations parallèles : elle est ensuite sous-traite de la capture totale mesurée à 30°C.
Les composés à tester sont solubilisés au départ dans de l'eau à une concentration de 1mM et les autres concentrations sont obtenues par des dilutions successives de cette solution mère dans l'eau.

Another data set has as its target récepteur de la PCP. Kind of data set: Competition binding at the (3H)TCP sites on rat brain homogenates (Example 36). To be noted: 1 nM (3H)TCP, 30 min at 25°C. The source says: Exemple 36 : Affinité des composés pour les sites de liaison de la (³H)TCP sur les homogénats de cerveaux de rats.
Dans cet essai on mesure les affinités des composés pour le récepteur de la PCP par des expériences de compétition sur des homogénats de cerveaux de rats. Le ligand radioactif utilisé est la (³H)TCP à une activité spécifique de 62 Ci/mmol (Service des Molécules Marquées, CEA Saclay France).
Les cerveaux de rats (sans le cervelet et le tronc cérébral) sont homogénéisés à l'ultra turax dans 20 volumes de tampon Hepes-Tris 50 mM, pH 7,7. Après centrifugation pendant 30 min à 15000 g le culot est repris dans le même volume de tampon et recentrifugé dans les mêmes conditions. Le culot final est repris dans du tampon Hepes-Tris 50 mM, pH 7,7 de façon à obtenir une concentration en protéine de 6 à 8 mg/ml.
Les expériences de compétition sont réalisées en incubant pendant 30 min les membranes (concentration finale en protéine : 0,6 à 0,8 mg/ml) en milieu tampon 5 mM Hepes-Tris, pH 7,7 à 25°C, en présence d'une concentration fixe de ligand tritié (1 nM)et de concentrations croissantes de composés à tester. Trois échantillons de 600 µL sont ensuite filtrés sur filtres de fibres de verre GF/B prétraités par du PEI (polyéthylénimine) à 0,1%. Les filtres sont rincés avec 3x5ml de tampon Tris-HCl 10 mM, NaCl 100 mM et la radioactivité retenue est mesurée dans un compteur à scintillation liquide. La liaison non spécifique est obtenue en présence de TCP […].

For a further data set, the target named is T2, capture de noradrénaline (Rattus norvegicus, UniProt Q63380).
T2 construct: préparations synaptosomales brutes d'hypothalamus de rats; from tissue; host or cells: male Sprague-Dawley rat hypothalamus, crude synaptosomal fraction
Kind of data set: Tritiated noradrenaline uptake by crude synaptosomal preparations of rat hypothalamus (Example 37). Particulars: rat hypothalamus synaptosomes, 50 nM tritiated noradrenaline, 10 min at 37°C; read-out: Capture 3H-NA IC₅₀. The format is biochemical. As to the method: Exemple 37 : Mesure de la capture de noradrénaline.
La capture de noradrénaline tritiée (40 Ci/mmole) est évaluée à partir de préparations synaptosomales brutes d'hypothalamus de rats (Sprague-Dawley mâle, 200-300g, Charles River, St Aubin lès Elbeuf, France).
Les animaux sont sacrifiés par décapitation et les cerveaux sont rapidement dégagés. Les hypothalami, disséqués à 0-4°C, sont homogénéisés dans 10 volumes (poids/volume) de saccharose 0,32 M préalablement refroidi, au moyen d'un homogénéiseur type Potter-Elvejhem (clairance 80-130 µm, 800 rpm). Les débris cellulaires et le matériel nucléaire sont éliminés par centrifugation (1000 g, 10 min, 4°C). Le surnageant constitue la fraction synaptosomale brute.
Des aliquots (50 µl) de préparation synaptosomale sont préincubés pendant 5 minutes à 37°C, en présence de pargyline 20 µM, et de concentrations croissantes des composés à tester, dans […] d'un milieu Krebs-Ringer enrichi en glucose (composition en mM : NaCl 103, CaCl₂1, MgCl₂ 1, KH₂PO₄ 1, NaHCO₃ 27, acide ascorbique 0,1, glucose 5,4). A l'issue de cette préincubation, la noradrénaline tritiée (concentration finale 50 nM) est ajoutée sous un volume de 40 µl, et l'incubation est poursuivie à 37°C pendant 10 minutes. La réaction est arrêtée par dilution avec 2 ml de milieu glacé et centrifugation (7000 g, 10 minutes, 4°C). Après lavage du culot de centrifugation dans 1 ml de milieu glacé, l'échantillon est à nouveau centrifugé dans les mêmes conditions. Le culot obtenu est remis en suspension dans 250 µl d'eau distillée par sonication (Sonotrode TC 4C). 100 µl de cette suspension sont utilisés pour la mesure de la radioactivité par scintillation liquide (SL 2000, Kontron intertechniques, Trappes, France) et 50 µl pour la détermination des taux de protéines (selon la méthode de Lowry et al.).
La capture non spécifique est étudiée simultanément à 0°C en présence des différentes concentrations de composé.
La capture spécifique (capture totale - capture à 0°C) est exprimée en fentomoles/mg de protéines.
Pour chaque concentration étudiée la mesure était faite en double, 3 à 5 expériences étant pratiquées à des jours différents (préparations synaptosomales différentes). Pour chaque composé, au moins 4 concentrations ont été étudiées (entre 10⁻⁹ et 10⁻⁶M habituellement).

The nature of data set [2]: Toxicity test in mice, 100 mg/kg intraperitoneal. Further details: species or system souris. To be noted: mouse, in vivo, ip, 100 mg/kg i.p., read-out: Toxicité à 100 mg/kg i.p. % mortalité à 48 h. As to the method:
Le tableau 6 annexé illustre les résultats d'essais de toxicité effectués chez la souris sur les amines substituées de l'invention à une dose de 100mg/kg par voie intrapéritonéale.

[3] abbreviates: rat striatal synaptosomes, 5 nM (3H)DA, 5 min at 30°C, read-out: [3H] DA IC50.

Where two headings read alike, the source gives them in different places.

T1 sequence (P23977 whole entry): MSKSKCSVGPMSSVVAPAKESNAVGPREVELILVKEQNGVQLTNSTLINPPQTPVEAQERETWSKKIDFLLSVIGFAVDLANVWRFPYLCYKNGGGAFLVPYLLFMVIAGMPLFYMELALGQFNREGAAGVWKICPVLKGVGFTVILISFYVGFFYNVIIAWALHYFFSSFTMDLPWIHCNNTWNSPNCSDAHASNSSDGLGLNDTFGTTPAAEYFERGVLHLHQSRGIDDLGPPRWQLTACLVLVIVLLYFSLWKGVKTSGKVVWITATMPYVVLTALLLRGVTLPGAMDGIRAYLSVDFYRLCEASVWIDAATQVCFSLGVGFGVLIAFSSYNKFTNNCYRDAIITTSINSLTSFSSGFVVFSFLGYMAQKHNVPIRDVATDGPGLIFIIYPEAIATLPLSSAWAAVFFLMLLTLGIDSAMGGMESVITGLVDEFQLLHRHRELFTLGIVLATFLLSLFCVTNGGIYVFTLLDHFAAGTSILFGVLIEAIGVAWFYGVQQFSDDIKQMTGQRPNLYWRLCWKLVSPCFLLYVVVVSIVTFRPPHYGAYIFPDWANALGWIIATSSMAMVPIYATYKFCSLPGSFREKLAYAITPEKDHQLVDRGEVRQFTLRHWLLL
T2 sequence (Q63380 1-617): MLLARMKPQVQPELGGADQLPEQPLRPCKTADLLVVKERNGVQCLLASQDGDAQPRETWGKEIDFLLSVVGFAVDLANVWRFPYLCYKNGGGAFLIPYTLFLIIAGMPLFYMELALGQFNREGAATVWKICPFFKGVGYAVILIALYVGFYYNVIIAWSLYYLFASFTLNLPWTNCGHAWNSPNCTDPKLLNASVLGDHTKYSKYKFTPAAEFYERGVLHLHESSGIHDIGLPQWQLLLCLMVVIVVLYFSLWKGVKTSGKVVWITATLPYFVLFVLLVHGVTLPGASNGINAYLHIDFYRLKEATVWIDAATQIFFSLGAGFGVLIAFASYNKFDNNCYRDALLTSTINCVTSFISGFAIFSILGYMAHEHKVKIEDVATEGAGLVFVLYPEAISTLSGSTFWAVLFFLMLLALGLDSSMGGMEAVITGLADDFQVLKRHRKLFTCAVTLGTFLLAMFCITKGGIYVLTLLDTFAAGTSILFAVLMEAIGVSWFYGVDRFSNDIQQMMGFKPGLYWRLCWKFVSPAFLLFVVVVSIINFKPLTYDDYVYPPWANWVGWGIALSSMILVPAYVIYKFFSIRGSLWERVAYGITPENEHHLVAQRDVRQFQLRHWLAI

For `CC1CCCN(C2(c3cc4ccccc4s3)CCCCC2)C1` (stereo not drawn) [composé n^o 2, (benzo(b)thiophényl-2)-1 ((méthyl-3 pipéridino)-1)-1 cyclohexane], the IC50 in data set [1] (setting [3]) was found to be 9.3 nM; at récepteur de la PCP it was 52000 nM; at capture de noradrénaline, 40 ± 0.5 nM. The mortality at 48 h in data set [2] is 10%.

Consider `C[C@H]1CC[C@](c2cc3ccccc3s2)(N2CCCCC2)CC1` [composé n^o 20, (benzo(b)thiophényl-2)-1-t-méthyl-4-r-(pipéridino-1)-1 cyclohexane], for which the IC50 in data set [1] (setting [3]) is 21.4 nM; at récepteur de la PCP, 112000 nM; on capture de noradrénaline, 94.3 nM. Also, the mortality at 48 h in data set [2] is 0%.

Take `C[C@H]1CC[C@@](c2cc3ccccc3s2)(N2CCCCC2)CC1` [composé n^o 21, (benzo(b)thiophényl-2)-1 c-méthyl-4-r-(pipéridino-1)-1 cyclohexane]: the IC50 is 9.4 nM in data set [1] (setting [3]), more than 100000 nM at récepteur de la PCP and 16.5 nM on capture de noradrénaline. For the same compound, in data set [2], the mortality at 48 h turned out to be 0%.

Consider `BrCC1CCCN(C2(c3cc4ccccc4s3)CCCCC2)C1` (stereo not drawn) [composé n^o 10, (benzo(b)thiophényl-2)-1 ((bromométhyl-3 pipéridino)-1)-1 cyclohexane], for which the IC50 was 57.1 nM in data set [1] (setting [3]), more than 100000 nM on récepteur de la PCP and 196 ± 31 nM on capture de noradrénaline. In addition, the mortality at 48 h in data set [2] is 0%.

For the compound `c1ccc2sc(C3(N4CCCCC4)CCCCC3)cc2c1` [BTCP, (benzo(b)thiophényl-2)-1 (pipéridino -1) cyclohexane, reference compound], the values for the IC50 (in data set [1]; at récepteur de la PCP; at capture de noradrénaline) were 13.9 nM, 20000 nM and 18.3 nM, respectively. The mortality at 48 h in data set [2] was 0%.

As for `CC1CC(C)CN(C2(c3cc4ccccc4s3)CCCCC2)C1` (stereo not drawn) [composé n^o 6, (benzo(b)thiophényl-2)-1 ((diméthyl-3,5 pipéridino)-1)-1 cyclohexane], the IC50 in data set [1] (setting [3]) is 14.9 nM; on récepteur de la PCP, more than 100000 nM; on capture de noradrénaline, 12.5 nM. Also, in data set [2], the mortality at 48 h was found to be 10%.

With `OC1CCN(C2(c3cc4ccccc4s3)CCCCC2)CC1` [composé 26, (benzo(b)thiophényl-2)-1( (ol-4-pipéridino)-1)-1 cyclohexane], the IC50 on récepteur de la PCP turned out to be 31900 nM.

Take `c1ccc2oc(C3(N4CCCCC4)CCCCC3)cc2c1` [composé n^o 4, (benzo(b)furannyl-2)-1 (pipéridino-1)-1 cyclohexane]: the results for the IC50 (in data set [1] (setting [3]); on récepteur de la PCP; at capture de noradrénaline) were 33.8 nM, 40000 nM and 22.2 nM, respectively. For the same compound, in data set [2], the mortality at 48 h was determined as 10%.

Take `CCCN(CCC)C1(c2cc3ccccc3s2)CCCCC1` [composé no 3, (benzo(b)thiophényl-2)-1 (dipropylamino-1)-1 cyclohexane]: the IC50 in data set [1] (setting [3]) is 12.9 nM; on récepteur de la PCP, 424000 nM; at capture de noradrénaline it was 22.7 nM. The mortality at 48 h in data set [2] was found to be 0%.

Values taken from EP0406111A1, “Substituted arylamines and heteroarylamines, process for their preparation and pharmaceutical composition containing them” (SOCIETE DE CONSEILS DE […] D'APPLICATIONS SCIENTIFIQUES …, priority 1989, dated 1991).
